The source of these data is patent US12441689B2 (EpiVario, Inc., priority 2019, dated 2025).

Chain of human ACSS2 protein (Q9NR19 whole entry): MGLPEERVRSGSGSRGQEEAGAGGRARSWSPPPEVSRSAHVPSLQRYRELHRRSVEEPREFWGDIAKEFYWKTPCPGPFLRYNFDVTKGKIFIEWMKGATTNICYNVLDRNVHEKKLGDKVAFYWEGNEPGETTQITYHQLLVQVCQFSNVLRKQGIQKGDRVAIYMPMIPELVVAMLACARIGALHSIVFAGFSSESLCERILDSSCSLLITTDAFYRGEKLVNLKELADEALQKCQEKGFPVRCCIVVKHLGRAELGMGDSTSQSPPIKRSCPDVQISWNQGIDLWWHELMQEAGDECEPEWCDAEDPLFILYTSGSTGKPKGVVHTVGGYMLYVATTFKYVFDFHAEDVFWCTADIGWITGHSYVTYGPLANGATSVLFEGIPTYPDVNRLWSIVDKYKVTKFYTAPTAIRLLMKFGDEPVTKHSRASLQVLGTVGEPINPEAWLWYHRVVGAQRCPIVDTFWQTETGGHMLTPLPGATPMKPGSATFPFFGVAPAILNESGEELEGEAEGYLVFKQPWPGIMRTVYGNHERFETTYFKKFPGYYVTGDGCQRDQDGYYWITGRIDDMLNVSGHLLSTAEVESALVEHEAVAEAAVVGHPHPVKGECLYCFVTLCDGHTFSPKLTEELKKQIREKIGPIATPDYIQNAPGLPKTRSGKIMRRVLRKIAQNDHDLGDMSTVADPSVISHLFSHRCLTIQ

This assay has as its target human ACSS2 protein (Homo sapiens (Human), UniProt Q9NR19). In words: ACSS2 Cell-Free Activity Assay (Cell-Free IC50). As to conditions: 10 nM human ACSS2 protein, 90 minutes at 37 C, pyrophosphatase-coupled, Biomol Green absorbance at 620 nm; read-out: ACSS2 Biochemical IC50. From the text:
ACSS2 Cell-Free Activity Assay (Cell-Free IC50)
On to `Cc1ncc(-c2ccc(OC(F)F)cc2)nc1C(=O)Nc1cccc(C(C)(F)F)c1` [Compound 126, N-(3-(1,1-difluoroethyl)phenyl)-6-(4-(difluoromethoxy)phenyl)-3-methylpyrazine-2-carboxamide], for which the IC50 was over 100 nM. The figure for `CCC(F)(F)c1cccc(NC(=O)c2cc(C)nc(-c3ccc(OC(F)F)c(-c4ccccc4)c3)n2)c1` [Compound 127, 2-(6-(difluoromethoxy)-[1,1′-biphenyl]-3-yl)-N-(3-(1,1-difluoropropyl)phenyl)-6-methylpyrimidine-4-carboxamide] is over 100 nM; for `CCC(F)(F)c1cccc(NC(=O)C2C(=O)N(c3cc(CC4CCCCC4)c(OC)c(-c4ccccc4)c3)N=C2C)c1` (centres unmarked) [Compound 128, 1-(5-(cyclohexylmethyl)-6-methoxy-[1,1′-biphenyl]-3-yl)-N-(3-(1,1-difluoropropyl)phenyl)-3-methyl-5-oxo-4,5-dihydro-1H-pyrazole-4-carboxamide] it is 1 to 100 nM; for `COc1c(CC2CCCCC2)cc(N2N=C(C)C(C(=O)Nc3cccc(C(C)(F)F)c3)C2=O)cc1-c1ccccc1` (centres unmarked) [Compound 129, 1-(5-(cyclohexylmethyl)-6-methoxy-[1,1′-biphenyl]-3-yl)-N-(3-(1,1-difluoroethyl)phenyl)-3-methyl-5-oxo-4,5-dihydro-1H-pyrazole-4-carboxamide] it is 1 to 100 nM. Consider `Cc1cc(C(=O)Nc2cccc(C(C)(F)F)c2)nc(-c2ccc(OC(F)F)c(-c3ccccc3)c2)n1` [Compound 130, N-(3-(1,1-difluoroethyl)phenyl)-2-(6-(difluoromethoxy)-[1,1′-biphenyl]-3-yl)-6-methylpyrimidine-4-carboxamide], for which the 50% inhibitory concentration (IC50) is 1 to 100 nM. With `Cc1nc(-c2cc(-n3cc(C(=O)Nc4cccc(C(C)(F)F)c4)c(C)n3)ccc2OC(F)F)co1` [Compound 131, N-(3-(1,1-difluoroethyl)phenyl)-1-(4-(difluoromethoxy)-3-(2-methyloxazol-4-yl)phenyl)-3-methyl-1H-pyrazole-4-carboxamide], the IC50 is over 100 nM.

For `CCC(F)(F)c1cccc(NC(=O)c2ncc(-c3ccc(OC(F)F)cc3)nc2C)c1` [Compound 132, 5-(4-(difluoromethoxy)phenyl)-N-(3-(1,1-difluoropropyl)phenyl)-3-methylpyrazine-2-carboxamide], the IC50 was over 100 nM. `Cc1nc(-c2ccc(OC(F)F)cc2)cnc1C(=O)Nc1cccc(C(C)(F)F)c1` [Compound 133, N-(3-(1,1-difluoroethyl)phenyl)-5-(4-(difluoromethoxy)phenyl)-3-methylpyrazine-2-carboxamide]: the IC50 was over 100 nM.

Regarding `CCC(F)(F)c1cccc(NC(=O)c2ncc(-c3ccc(OC(F)F)c(-c4ccccc4)c3)nc2C)c1` [Compound 134, 5-[4-(difluoromethoxy)-3-phenyl-phenyl]-N-[3-(1,1-difluoropropyl)phenyl]-3-methyl-pyrazine-2-carboxamide], the IC50 is over 100 nM. The figure for `Cc1nc(-c2ccc(OC(F)F)c(-c3ccccc3)c2)cnc1C(=O)Nc1cccc(C(C)(F)F)c1` [Compound 135, N-[3-(1,1-difluoroethyl)phenyl]-5-[4-(difluoromethoxy)-3-phenyl-phenyl]-3-methyl-pyrazine-2-carboxamide] is 1 to 100 nM; for `CCC(F)(F)c1cccc(NC(=O)c2oc(-c3ccc(OC)cc3)nc2C)c1` [Compound 136, N-(3-(1,1-difluoropropyl)phenyl)-2-(4-methoxyphenyl)-4-methyloxazole-5-carboxamide] it is 1 to 100 nM; for `CCC(F)(F)c1cccc(NC(=O)c2cc(C)nc(-c3ccc(OC(F)F)cc3)n2)c1` [Compound 137, 2-(4-(difluoromethoxy)phenyl)-N-(3-(1,1-difluoropropyl)phenyl)-6-methylpyrimidine-4-carboxamide] it is 1 to 100 nM.

Regarding `CCC(F)(F)c1cccc(NC(=O)c2cnc(-c3ccc(OC(F)F)c(-c4ccccc4)c3)nc2C)c1` [Compound 138, 2-[4-(difluoromethoxy)-3-phenyl-phenyl]-N-[3-(1,1-difluoropropyl)phenyl]-4-methyl-pyrimidine-5-carboxamide], the IC50 was over 100 nM. As to `Cc1nc(-c2ccc(OC(F)F)c(-c3ccccc3)c2)ncc1C(=O)Nc1cccc(C(C)(F)F)c1` [Compound 139, N-[3-(1,1-difluoroethyl)phenyl]-2-[4-(difluoromethoxy)-3-phenyl-phenyl]-4-methyl-pyrimidine-5-carboxamide], the concentration for half-maximal inhibition (IC50) was over 100 nM. The value for `Cc1nc(-c2ccc(OC(F)F)cc2)oc1C(=O)Nc1cccc(C(C)(F)F)c1` [Compound 141, N-(3-(1,1-difluoroethyl)phenyl)-2-(4-(difluoromethoxy)phenyl)-4-methyloxazole-5-carboxamide] was over 100 nM; that for `COc1ccc(-c2nc(C)c(C(=O)Nc3cccc(C(C)(F)F)c3)o2)cc1` [Compound 142, N-(3-(1,1-difluoroethyl)phenyl)-2-(4-methoxyphenyl)-4-methyloxazole-5-carboxamide] was over 100 nM. The value for `CCC(F)(F)c1cccc(NC(=O)c2cnc(-c3ccc(OC(F)F)cc3)nc2C)c1` [Compound 143, 2-[4-(difluoromethoxy)phenyl]-N-[3-(1,1-difluoropropyl)phenyl]-4-methyl-pyrimidine-5-carboxamide] was over 100 nM; that for `Cc1nc(-c2ccc(OC(F)F)cc2)ncc1C(=O)Nc1cccc(C(C)(F)F)c1` [Compound 144, N-[3-(1,1-difluoroethyl)phenyl]-2-[4-(difluoromethoxy)phenyl]-4-methyl-pyrimidine-5-carboxamide] was over 100 nM. The value for `Cc1nn(-c2ccc(OC(F)F)cc2)c(C2CC2)c1C(=O)Nc1cccc(C(C)(F)F)c1` [Compound 145, 5-cyclopropyl-N-[3-(1,1-difluoroethyl)phenyl]-1-[4-(difluoromethoxy)phenyl]-3-methyl-pyrazole-4-carboxamide] was 1 to 100 nM; that for `Cc1nn(-c2ccc(OC(F)F)cc2)c(C(C)C)c1C(=O)Nc1cccc(C(C)(F)F)c1` [Compound 146, N-[3-(1,1-difluoroethyl)phenyl]-1-[4-(difluoromethoxy)phenyl]-5-isopropyl-3-methyl-pyrazole-4-carboxamide] was over 100 nM. As to `Cc1cc(C(=O)Nc2cccc(C(C)(F)F)c2)nc(-c2ccc(OC(F)F)cc2)n1` [Compound 147, N-(3-(1,1-difluoroethyl)phenyl)-2-(4-(difluoromethoxy)phenyl)-6-methylpyrimidine-4-carboxamide], the half-inhibitory concentration (IC50) fell in the range of 1 to 100 nM.

With `CCc1c(C(=O)Nc2cccc(C(C)(F)F)c2)c(C)nn1-c1ccc(OC(F)F)c(-c2ccccn2)c1` [Compound 148, N-[3-(1,1-difluoroethyl)phenyl]-1-[4-(difluoromethoxy)-3-(2-pyridyl)phenyl]-5-ethyl-3-methyl-pyrazole-4-carboxamide], the IC50 is over 100 nM. The figure for `Cc1nn(-c2ccc(OC(F)F)c(-c3cocn3)c2)cc1C(=O)Nc1cccc(C(C)(F)F)c1` [Compound 149, N-(3-(1,1-difluoroethyl)phenyl)-1-(4-(difluoromethoxy)-3-(oxazol-4-yl)phenyl)-3-methyl-1H-pyrazole-4-carboxamide] is over 100 nM. The value for `Cc1nn(-c2ccc(OC(F)F)cc2)c(CC(C)C)c1C(=O)Nc1cccc(C(C)(F)F)c1` [Compound 150, N-(3-(1,1-difluoroethyl)phenyl)-1-(4-(difluoromethoxy)phenyl)-5-isobutyl-3-methyl-1H-pyrazole-4-carboxamide] was over 100 nM; that for `CCc1c(C(=O)Nc2cccc(C(C)(F)F)c2)c(C)nn1-c1ccc(OC(F)F)c(-c2ccccc2)c1` [Compound 151, N-[3-(1,1-difluoroethyl)phenyl]-1-[4-(difluoromethoxy)-3-phenyl-phenyl]-5-ethyl-3-methyl-pyrazole-4-carboxamide] was over 100 nM; that for `CCc1c(C(=O)Nc2cccc(C(C)(F)F)c2)c(C)nn1-c1ccc(OC(F)F)c(-c2cccnc2)c1` [Compound 152, N-[3-(1,1-difluoroethyl)phenyl]-1-[4-(difluoromethoxy)-3-(3-pyridyl)phenyl]-5-ethyl-3-methyl-pyrazole-4-carboxamide] was over 100 nM. The value for `COc1ccc(-c2nc(C(=O)Nc3cccc(C(C)(F)F)c3)c(C)o2)cc1` [Compound 153, N-[3-(1,1-difluoroethyl)phenyl]-2-(4-methoxyphenyl)-5-methyl-oxazole-4-carboxamide] was over 100 nM; that for `Cc1nn(-c2ccc(OC(F)F)cc2)c(C2CCCC2)c1C(=O)Nc1cccc(C(C)(F)F)c1` [Compound 154, 5-cyclopentyl-N-[3-(1,1-difluoroethyl)phenyl]-1-[4-(difluoromethoxy)phenyl]-3-methyl-pyrazole-4-carboxamide] was over 100 nM. In the case of `CCc1nn(-c2ccc(OC(F)F)cc2)c(C)c1C(=O)Nc1cccc(C(C)(F)F)c1` [Compound 155, N-(3-(1,1-difluoroethyl)phenyl)-1-(4-(difluoromethoxy)phenyl)-3-ethyl-5-methyl-1H-pyrazole-4-carboxamide], the 50% inhibitory concentration (IC50) is over 100 nM. The figure for `CCc1c(C(=O)Nc2cccc(C(C)(F)F)c2)c(C)nn1-c1ccc(OC(F)F)cc1` [Compound 156, N-(3-(1,1-difluoroethyl)phenyl)-1-(4-(difluoromethoxy)phenyl)-5-ethyl-3-methyl-1H-pyrazole-4-carboxamide] is over 100 nM; for `CC1=NN(c2ccc(OC(F)F)cc2)C(=O)C1(C)C(=O)Nc1cc(C)cc(Cl)c1` (centres unmarked) [Compound 157, N-(3-chloro-5-methyl-phenyl)-1-[4-(difluoromethoxy)phenyl]-3,4-dimethyl-5-oxo-pyrazole-4-carboxamide] it is over 100 nM.

For `CCCC1(C(=O)Nc2cccc(C(C)(F)F)c2)C(=O)N(c2ccc(OC(F)F)cc2)N=C1C` (centres unmarked) [Compound 158, N-(3-(1,1-difluoroethyl)phenyl)-1-(4-(difluoromethoxy)phenyl)-3-methyl-5-oxo-4-propyl-4,5-dihydro-1H-pyrazole-4-carboxamide], the IC50 was over 100 nM.
